These are literature values, as cited in patent US20070026077A1 (priority 2003, published 2007).

The subject of data set [1] is small-cell lung carcinoma. As to conditions: patients with small-cell lung carcinoma.
For data set [2], the system named is plasmatic proteins.
The conditions of data set [3]: white crystalline light powder.

For `CC(=O)CC(c1ccccc1)c1c(O)c2ccccc2oc1=O` (stereo not shown) [warfarin], in data set [1], the survival time result is listed as “prolongation of survival time” and the tumor disease progression result is given as “statistically significant retardation of tumor disease progression”. In addition, the “bound to plasmatic proteins” value in data set [2] is “About 97%”.
As for `CC(=O)CC(c1ccccc1)c1c([O-])c2ccccc2oc1=O.[Na+]` (stereo not drawn) [warfarin sodium salt, sodium salt of 3-(α-acetonylbenzyl)-4-hydroxy-coumarin], the hygroscopicity result in data set [3] is reported as “hygroscopic”.
